IC50 data for nine compounds are collected here from ChEMBL document CHEMBL1140760, “Molecular docking identifies the binding of 3-chloropyridine moieties specifically to the S1 pocket of SARS-CoV Mpro” (Bioorg Med Chem, 2008).

Each structure is given as a SMILES string.

The assay in a line: Inhibition of SARS-CoV Mpro. Also on record: species or system Severe acute respiratory syndrome-related coronavirus.
For the compound `O=C(Oc1cncc(Cl)c1)c1ccc(-c2ccc(Cl)cc2)o1`, inhibition was half-maximal at 63 nM (IC50).
With `O=C(Oc1cncc(Cl)c1)c1ccccc1[N+](=O)[O-]`, the 50% inhibitory concentration (IC50) amounted to 333 nM.
The value for `O=C(Oc1cncc(Cl)c1)c1cccc([N+](=O)[O-])c1` was 684 nM; that for `O=C(Oc1cncc(Cl)c1)c1ccc(-c2ccc(Cl)cc2[N+](=O)[O-])o1` was 122 nM.
The value for `O=C(Oc1cncc(Cl)c1)c1ccc(-c2cccc([N+](=O)[O-])c2)o1` was 500 nM; that for `O=C(Oc1cncc(Cl)c1)c1cc2ccccc2oc1=O` was 108 nM.
In turn, `O=C(Oc1cncc(Cl)c1)c1ccc(-c2ccc([N+](=O)[O-])cc2)o1` came in with an IC50 of 60 nM.
For `O=C(Oc1cncc(Cl)c1)c1ccc(-c2ccccc2[N+](=O)[O-])o1`, the IC50 worked out at 208 nM.
As for `O=C(Oc1cncc(Cl)c1)c1cccc2ccccc12`, the figure is 124 nM.
